From patent publication US20200276164A1, “PHARMACEUTICAL COMBINATIONS FOR THE TREATMENT OF CANCER” (The Queen's University of Belfast, priority 2017, published 2020)

What was measured:
[1] = system: LNCaP cells; experiment: LNCaP cell viability (MTT assay), normoxia or hypoxia; assay type: cell-based, human; conditions: 10 μM, 72 h
Experimental: (§1) Authenticated PC3 (ATCC CRL-1435), LNCaP (ATCC CRL-1740) and 22Rv1 (ATCC CRL-2505) cells were cultured as described in Seaton et al. (Carcinogenesis 2008; 29: 1148-56). C4-2B cells were maintained in RPMI 1640 supplemented with 10% fetal calf serum (FCS). MDV3100-sensitive (LNCaP-Par) and resistant (LNCaP-EnzR) cells were obtained from Prof. Vander Griend, University of Chicago, Chicago, Ill., and were cultured as described in Kregel et al. (Oncotarget 2016; 7: 26259-74). HUVEC (ATCC CRL-1730) cells were maintained in Endothelial Cell Growth Medium (#CC-3162, Lonza, UK). For experiments involving hypoxia (0.1% 02), cells were cultured as previously reported (Maxwell et al., Oncogene 2007; 26: 7333-45). Human IL-8 monoclonal antibody (#MAB208), human VEGF mAb (#AB293NA) and isotype-matched IgG (#MAB002) were obtained from R&D Systems (UK). MDV3100 (#S1250) was obtained from Selleckchem (Germany). Cells were regularly tested to ensure they were free of mycoplasma contamination.
(§2) Cell viability was assessed by 3-(4,5-dimethylthiazol-2-yl)-2,5-diphenyltetrazolium bromide (MTT) assay as previously described (Maxwell et al., Oncogene 2007; 26: 7333-45).

[2] = system: LNCaP-EnzR cells; experiment: Immunoblot of PARP, AR, c-FLIP and Bcl-2 in LNCaP-EnzR cells; assay type: cell-based, human; conditions: MDV3100 10 μM, 72 h
Experimental: (§3) Immunoblotting was performed as previously described (McCourt et al., Clin Cancer Res 2012; 18:3822-33). Antibodies were obtained as follows: AR, Millipore (#PG-21, UK); AR-V7 (#ab198394) & PARP (#14-6667-82), Abcam (UK); Bcl-2 (#4223), Cell Signalling Technology (The Netherlands); c-FLIP (#AG-20B-0056), Adipogen (Switzerland); RELA(p65) (#sc-372), Santa Cruz (CA, USA); GAPDH (#MCA4740), Biorad (UK).

[3] = system: hypoxic LNCaP cells; experiment: ELISA of secreted VEGF and IL-8 from hypoxic LNCaP cells; assay type: cell-based, human; conditions: MDV3100 10 μM, relative to DMSO
Experimental: as §1
Secreted IL-8 (#M1918, Pelikine, Mast Group, UK), and VEGF (#DY293B, R&D Systems, UK) were measured by ELISA as per manufacturer's instructions.

[4] = system: C4-2B cells; experiment: C4-2B cell viability assay; assay type: cell-based; conditions: 72 h
Experimental: as §1, §2

[5] = system: PC3 cells; experiment: PC3 cell viability assay; assay type: cell-based, human; conditions: increasing concentrations, 72 h, relative to DMSO vehicle control
Experimental: as §2

[6] = system: HUVEC cells; experiment: HUVEC apoptosis (Annexin V/PI staining); assay type: cell-based, human; conditions: 10 μM, 72 h
Experimental: FIG. 1 illustrates that MDV3100 treatment directly affects tumour vasculature. (A) Graph illustrating measured intra-tumoural oxygenation levels in growing MDV3100-treated LNCaP tumours, in the absence and presence of anti-IL-8 nAb (50 μg/ml) and/or anti-VEGF nAb (100 μg/ml). Values shown are mean (±SD). (B) Bar graph presenting time-dependent changes in tumour vessel density over time in MDV3100-treated LNCaP tumours, in the absence or presence of anti-IL-8 nAb (50 μg/ml) and/or anti-VEGF nAb (100 μg/ml). Stereological methods were used to analyze change in vessel density over time in all treatment groups and values were used to calculate percentage area covered by vessels. […] Data shown are the mean (±SEM) of four individual experiments. […] Viability was determined by MTT assay. […] Apoptosis was assessed by Annexin V/PI staining. […] The number of junctions was measured using AngioSys 2.0 software. […] For all data, statistically significant differences were determined using a Student's two-tailed t-test or Mann-Whitney U test:* p<0.05, ** p<0.01, *** p<0.001.
To further understand the events contributing to MDV3100-promoted hypoxia, we studied the direct effect of MDV3100 administration upon vascular endothelial cells using two independent i assays. In agreement with previous studies, we detected AR mRNA in HUVEC endothelial cells by qPCR analysis (FIG. 1C, top panel). […]

[7] = system: LNCaP tumours; experiment: Tumour oxygenation measurement in LNCaP xenograft model; assay type: in vivo, Balb/c SCID mice; conditions: MDV3100 4 mg/kg p.o. daily, nAbs i.p. 3x/week (anti-IL-8 50 μg/ml, anti-VEGF 100 μg/ml), over 28 days
Experimental: Tumour oxygenation was measured once weekly as previously described (Ming et al., Int J Cancer 2013; 132:1323-32).

[8] = system: LNCaP tumour vasculature; experiment: Dorsal skin flap model, tumour vessel coverage; assay type: in vivo, Balb/c SCID mice
Experimental: A viewing chamber was attached to a raised skin flap on the dorsal surface of the mouse (Balb/c SCID) and a fragment (˜0.5 mm) of LNCaP tumour was placed on the microvascular as previously described (9). Tumour vasculature was imaged weekly/4 weeks using a stereomicroscope. Image analysis was carried out using Touptek software (Touptek Photonics, China).

[9] = system: endothelial cell tubule formation; experiment: In vitro angiogenesis (V2A vascular tubule formation) assay; assay type: cell-based; conditions: 10 days; for stimulation of endothelial cell tubule formation: VEGF 2 ng/ml or rh-IL-8 3 nM
Experimental: The V2A angiogenesis assay (#ZHA-4000, Cellworks, UK) was carried out according to the manufacturer's instruction. Cells were allowed to settle for 4 days prior to treatment. Treatments were carried out in duplicate and were replenished every 2 days for 10 days. For treatments involving conditioned media, PC3 or LNCaP cells were treated as required for 24 h, media harvested and stored at −20° C. Vessels were visualized at 4× magnification. Vessel density was measured in four fields per well using AngioSys 2.0 software (Cellworks, UK).

[10] = system: PC3 cells; experiment: Chick embryo experimental metastasis model (CAM assay), PC3 colonization; assay type: in vivo; conditions: over five days; 0.1 mL of 20 μM solution i.v. per embryo on days 1 and 2
Experimental: Experimental metastasis assays were performed in chick embryos as described (Deryugina et al., Histochem Cell Biol 2008; 130: 1119-30). On day 12 of incubation, PC3 cells were injected directly into the blood circulation through an allantoic vein (1×10^5 cells in 0.1 mL serum-free medium per embryo). MDV3100 was delivered i.v. on days 1 and 2 after cell inoculations (0.1 mL of a 20 μM solution per embryo). On day 5, portions of the CAM were harvested to quantify the number of human tumour cells by human-specific Alu-qPCR as previously described (Deryugina et al., Cancer Res 2005; 65: 10959-69), using a standard curve generated by serial dilutions of human tumour cells within a constant number (1×10^6) of chick embryo fibroblasts.

[11] = system: hypoxic LNCaP cells; experiment: qPCR of hypoxia-induced gene expression in LNCaP cells; assay type: cell-based, human; conditions: MDV3100 10 μM
Experimental: as §1
Nucleic acid samples were prepared and analyzed as previously described (Maxwell et al., Oncogene 2007; 26: 7333-45; Maxwell et al., Eur Urol 2013; 64: 177-88). Primer sequences were as follows: AR: Forward, 5′-[…]-3′ (SEQ ID NO: 1); Reverse, 5′-[…]-3′ (SEQ ID NO: 2); PSA/KLK3: Forward, 5′-[…]-3′ (SEQ ID NO: 3); Reverse, 5′-TTGCGCACACACGTCATT-3′ (SEQ ID NO: 4). Primer sequences for 18s, BCL2, CAIX, IL-8, and VEGF have been previously reported (Maxwell et al., Oncogene 2007; 26: 7333-45; Lekas et al., Urol Res 1997; 25: 309-14).

[12] = system: LNCaP cells; experiment: PARP immunoblot in LNCaP cells; assay type: cell-based, human; conditions: 10 μM, 72 h
Experimental: as §3

[13] = HUVEC cell viability (MTT assay); assay type: cell-based; conditions: human, HUVEC cells, read-out: reduction of viability of HUVEC cells
Experimental: as §2

[14] = system: LNCaP xenograft; experiment: LNCaP xenograft study, tumour growth
Experimental: MDV3100 (in 0.1% DMSO in corn oil) was administered orally (p.o). Vehicle control (VC) or MDV3100 (4 mg/kg, equivalent to 100 mg/day in men) was administered daily. Human IL-8 and VEGF nAbs were administered 3×/week via intraperitoneal (i.p.) injection, at a final concentration of 50 μg/ml and 100 μg/ml, respectively. IgG control was at a final concentration of 150 μg/ml.
LNCaP cells (1×10^7 in Matrigel) were implanted on the rear dorsum of 8-10-week-old male Balb/c SCID mice. When tumour volume was 150-200 mm^3, mice were randomly assigned to treatment groups (3-5 per group). […] Mice were sacrificed at day 28 or day 35. Tumour growth over 28 days (% T/C) was calculated using the equation: % T/C=(mean tumour volume on day 28−mean starting volume)/(mean control tumour volume on day 28−mean control starting volume)×100.
Tumours were measured 3×/week using digital calipers. The length and width of the tumour was measured and the volume calculated using the formula volume=(length×width 2)/2. *, numbers in brackets show % T/C compared to enzalutamide alone at day 28; **, control is enzalutamide alone.

[15] = system: LNCaP-EnzR cells; experiment: LNCaP-EnzR (MDV3100-resistant) cell viability assay; assay type: cell-based, human; conditions: MDV3100 10 μM, relative to DMSO control
Experimental: as §1, §2

Q: Which results are given for `CNC(=O)c1ccc(N2C(=S)N(c3ccc(C#N)c(C(F)(F)F)c3)C(=O)C2(C)C)cc1F` [MDV3100, Enzalutamide]?
A: viability of LNCaP cells ([1]; hypoxic conditions): ineffective; viability of LNCaP cells ([1]; normoxia, relative to DMSO control): reduced the viability; expression of full-length PARP (immunoblot) [2]: clearly increased; hypoxia-induced secretion of VEGF and IL-8 (ELISA) [3]: failed to attenuate; sensitivity of C4-2B cells (viability) ([4]; hypoxia, 10 μM): reduced sensitivity; sensitivity of C4-2B cells (viability) ([4]; normoxic culture conditions): intermediate sensitivity; viability of PC3 cells [5]: unresponsive; induction of apoptosis in HUVEC cells ([6]; hypoxia): significantly enhanced; induction of apoptosis in HUVEC cells ([6]; normoxic culture conditions): minimal; intra-tumoural oxygen levels [7]: rapid, profound drop in tumour oxygen levels over the initial 14 days; vessel coverage (percentage area covered by tumour vessels) ([8]; 14 days): 5.2±2.2%; vessel coverage (percentage area covered by tumour vessels) ([8]; after 7 days of treatment): 8.2±2.3%; vessel coverage (percentage area covered by tumour vessels) ([8]; day 21): 10.3±3.1%; vessel coverage (percentage area covered by tumour vessels) ([8]; day 28): 14.7±2.6%; tubule formation with conditioned medium from MDV3100-treated PC3 cells ([9]; CM of PC3 cells cultured with MDV3100 10 μM): no detrimental effect on tubule formation; development of branching junctions (vascular tubule formation) ([9]; MDV3100 10 μM): significantly impaired the development of branching junctions; PC3 colonization in the CAM assay [10]: significantly enhanced PC3 colonization; hypoxia-induced up-regulation of BCL2 (qPCR) [11]: failed to reverse; hypoxia-induced up-regulation of CAIX (qPCR) [11]: failed to reverse; hypoxia-induced expression of VEGF and IL-8 (qPCR) ([11]; relative to DMSO): failed to attenuate; full-length PARP protein (immunoblot) ([12]; hypoxic LNCaP cells): stabilization of PARP; full-length PARP protein (immunoblot) ([12]; normoxic LNCaP cells): loss of full-length PARP protein; cytotoxicity at 72 h, 10 μM ([13]; 10 μM): 10%; cytotoxicity at 72 h, 50 μM ([13]; 50 μM): 17%; Tumour volume at day 28 (mm^3) (±SD) ([14]; day 28, MDV3100 4 mg/kg p.o. daily, antibodies i.p. 3x/week): 423 (±90) mm^3; reduction in tumour volume / tumour growth ([14]; treatment-day 28, over 28 days): 59.5%; % T/C ([14]; tumour growth over 28 days versus vehicle control): 39.0%; viability of LNCaP-EnzR cells [15]: no effect

Q: Which “stimulation of endothelial cell tubule formation” value [9] does the source give for VEGF here?
A: directly stimulated endothelial cell tubule formation

Q: With “rh-IL-8: exogenous rh-IL-8 (3 nM) added in the tubule formation assay” as the compound, how does the “stimulation of endothelial cell tubule formation” value [9] read?
A: less potent in stimulating tubule formation
